What was measured:
[1] = Prodrug release in mouse assessed as unbound brain to plasma concentration of ketoprofen at 30 mg/kg, po; type: ADME, organism-based
[2] = Prodrug release in mouse brain assessed as Cmax of ibuprofen after 60 mins; type: ADME, tissue-based; design: time 60 min; conditions: in vivo, 1 h
[3] = Prodrug release in mouse brain assessed as AUC of ibuprofen after 60 mins; type: ADME, tissue-based; design: time 60 min; conditions: in vivo, 1 h
Procathepsin L = Procathepsin L (Homo sapiens, UniProt P07711); test: Inhibition of human cathepsin L
[4] = Efflux ratio of apparent permeability across basolateral to apical side over apical to basolateral side in MDCK-MDR1 cells; type: ADME, cell-based, Canis lupus familiaris; conditions: dog
[5] = Ratio of AUC in Brain to plasma in mouse at 10 mg/kg, po; type: ADME, organism-based; conditions: brain and plasma, read-out: Ratio AUC
[6] = Inhibition of Toxoplasma gondii cathepsin L
[7] = Prodrug release in mouse assessed as nipecotic-acid concentration in brain at 15 mg/kg, iv after 30 mins; type: ADME, organism-based; conditions: in vivo, 0.5 h
[8] = Cmax in mouse brain at 48 mmol/kg, iv after 25 mins; type: ADME, organism-based; design: dose 48 mmol/Kg, time 25 min, route iv
[9] = AUC in mouse brain at 48 mmol/kg, iv after 25 mins; type: ADME, organism-based; design: time 25 min, dose 48 mmol/Kg, route iv; conditions: in vivo
[10] = Apparent permeability in MDCKII-MDR1 cells; type: ADME, cell-based, Canis lupus familiaris; conditions: dog, MDCK-MDR1
[11] = Unbound brain-to-plasma concentration ratio in mouse at 30 mg/kg, po; type: ADME, organism-based; conditions: brain and plasma, read-out: K(p,uu,brain)

Chain of Procathepsin L (P07711 whole entry): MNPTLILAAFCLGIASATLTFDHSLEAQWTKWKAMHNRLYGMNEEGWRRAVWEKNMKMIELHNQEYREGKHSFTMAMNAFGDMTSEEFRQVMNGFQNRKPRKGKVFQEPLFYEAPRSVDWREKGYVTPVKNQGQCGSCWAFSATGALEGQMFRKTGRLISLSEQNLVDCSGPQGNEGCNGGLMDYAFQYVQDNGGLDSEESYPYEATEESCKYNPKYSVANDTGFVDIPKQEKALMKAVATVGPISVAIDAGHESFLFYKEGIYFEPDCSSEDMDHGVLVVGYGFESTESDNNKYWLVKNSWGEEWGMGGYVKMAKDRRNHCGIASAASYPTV

## C[C@H](C(=O)Nc1ccc(C[C@@H](N)C(=O)O)cc1)c1cccc(C(=O)c2ccccc2)c1
[1]
  K(p,uu,brain): 0.35

## C[C@H](C(=O)Nc1cccc(C[C@@H](N)C(=O)O)c1)c1cccc(C(=O)c2ccccc2)c1
[1]
  K(p,uu,brain): 0.13

## CC(C)Cc1ccc(C(C)C(=O)O[C@@H](CN(C)C)[C@H]2OC(=O)C(O)=C2O)cc1 (some centres undefined)
[2]
  Cmax: 52.6 µg/g
[3]
  AUC: 5870 µg·min/g

## CC(C)CCN(c1nc(C#N)nc(N2CCOCC2)n1)C(C)c1ccc(F)cc1 (centres undefined)
Procathepsin L
  IC50: 23 nM
[4]
  efflux ratio: 0.223
[5]
  Kp: 0.52
[6]
  IC50: 92 nM

## N[C@@H](COC(=O)C1CCCNC1)C(=O)O (some centres undefined)
[7]
  Drug metabolism: 450 nmol/g

## CC(C)Cc1ccc(C(C)C(=O)O)cc1 (centres undefined) [IBUPROFEN]
[8]
  Cmax: 10.7 µg/g
[9]
  AUC: 1860 µg·min/g

## CC(c1ccc(O)c(O)c1)N(C)C.Cl (centres undefined)
[10]
  Papp: 1.13 ×10⁻⁶ cm/s

## CC(C(=O)O)c1cccc(C(=O)c2ccccc2)c1 (centres undefined) [KETOPROFEN]
[11]
  Kp uu: 0.01

## N#Cc1nc(N2CCOCC2)nc(N(Cc2ccc(F)cc2)CC2CCCNC2)n1 (centres undefined)
Procathepsin L
  IC50: 1200 nM
[4]
  efflux ratio: 17.2
[5]
  Kp: 0.15
[6]
  IC50: 181 nM

## CC(c1cccc(O)c1O)N(C)C.Cl (centres undefined)
[10]
  Papp: 23.9 ×10⁻⁶ cm/s

## CC(c1cc(O)ccc1O)N(C)C.Cl (centres undefined)
[10]
  Papp: 26.3 ×10⁻⁶ cm/s
